Among the data in ChEMBL document CHEMBL1133266, “Effects of 2-(substituted-sulfanyl)-3,5-dihydro-imidazole-4-one and 2-(substituted-sulfanyl)-1H-imidazole-4,5-dione derivatives on serum HDL-cholesterol” (2000) are Increase and Change values, retold here.

One test has as its system Rattus norvegicus. The test is described as follows: Compound was evaluated in vivo for the increase of very low density lipoprotein cholesterol (VLDL-C) in cholesterol fed male rats. The test is classed as functional.
On to `CCSC1=NCC(=O)N1c1ccccc1C`, for which the Increase stood at 78%.

The subject of a further test is Rattus norvegicus. The test is described as follows: Increase of high density lipoprotein cholesterol (HDL-C) in cholesterol fed male rats after treatment for 8 days at a dose of 100 mg/kg/day; Average % HDL-C change in 6 animals. The test is classed as functional.
The compound `CCSC1=NCC(=O)N1c1c(C)cccc1Cl` displayed a Change of 71%. On the same count and under the same terms, the value for `CCSC1=NCC(=O)N1c1cccc(Cl)c1C` was 26%; that for `CCSC1=NCC(=O)N1c1ccccc1C` was 139%; that for `CCSC1=NCC(=O)N1c1cc(Cl)ccc1C` was 153%. `CCSC1=NC(=O)C(=O)N1c1ccccc1C` gave a Change of 48%. `CCSC1=NCC(=O)N1c1ccccc1Cl` yielded a Change of 74%. Compound `CCSC1=NCC(=O)N1c1ccccc1` came in with a Change of 89%. Turning to `CCSC1=NCC(=O)N1c1c(C)cccc1C`, the Change amounted to 75%. `CCSC1=NCC(=O)N1c1ccc(C)c(Cl)c1` registered a Change of 45%. `CCSC1=NCC(=O)N1c1c(Cl)cccc1Cl` yielded a Change of 169%. Compound `CCSC1=NCC(=O)N1c1cc(Cl)ccc1OC` showed a Change of 66%. `CCSC1=NC(=O)C(=O)N1c1cc(Cl)ccc1C` returned a Change of 85%.

On to `CCSC1=NCC(=O)N1c1cc(F)ccc1C`, for which the Change is on record as 32%. As for `CCSC1=NCC(=O)N1c1ccc(Cl)cc1C`, the Change is 39%. With `Cc1ccc(Cl)cc1N1C(=O)CN=C1SCc1ccccc1`, the Change is 102%. `CCSC1=NC(C)C(=O)N1c1cc(Cl)ccc1C` (stereo not drawn): the Change is given as 211%.

The next test deals with Rattus norvegicus. The test is described as follows: Compound was evaluated for increase of high density lipoprotein cholesterol (HDL-C) in cholesterol fed male rats after treatment for 8 days at a dose of 80 mg/kg/day; Average % HDL-C change in 6 animals. It counts as functional.
`CCSC1=NCC(=O)N1c1ccc(F)cc1` displayed a Change of 140%.
